{
  "source": "patent US11865101B2",
  "about": "“Cromolyn metal complexes as enhanced pharmaceutical formulations and method of preparing the same” (University of Puerto Rico, priority 2020, dated 2024)",
  "key": {"[1]": {"test": "Dissolution / stability in FaSSGF (pH 1.60) at 37° C.", "type": "physicochemical", "conditions": "FaSSGF pH=1.60, 37° C.", "procedure": "Dissolution profiles—Dissolution profiles were recorded for CS, Cromolyn-Zn, Cromolyn-Mg, and Cromolyn-Ca and quantified by measuring absorbance at 237 nm against a reagent blank containing the buffered media. Dissolution tests were performed in a PBS buffer (pH=7.40) and FaSSGF (pH=1.60) at 37° C. under constant stirring (150 rpm). Absorbance measurements were performed on an Agilent Technologies Cary Series UV-Vis Spectrophotometer, Cary 100 UV-Vis model; using the UV Cary Scan software version v.20.0.470.\nThe stability of these materials in biologically relevant media was used to understand the ability of the pMCs to sustain blood plasma concentration for CS. A higher blood concentration might allow for longer circulation times and adequate delivery to the target tissues and organs. This is currently a pharmacological disadvantage for oral formulations of CS (<1% bioavailability and low solubility ˜100.0 mg/mL at 20° C.). […] Therefore, no further dissolution studies were carried out in this media."}, "[2]": {"test": "Dissolution profile in PBS (pH 7.40) at 37° C., UV absorbance at 237 nm", "type": "physicochemical", "conditions": "PBS pH=7.40, 37° C., 150 rpm, after 1 hr", "procedure": "Dissolution profiles—Dissolution profiles were recorded for CS, Cromolyn-Zn, Cromolyn-Mg, and Cromolyn-Ca and quantified by measuring absorbance at 237 nm against a reagent blank containing the buffered media. Dissolution tests were performed in a PBS buffer (pH=7.40) and FaSSGF (pH=1.60) at 37° C. under constant stirring (150 rpm). Absorbance measurements were performed on an Agilent Technologies Cary Series UV-Vis Spectrophotometer, Cary 100 UV-Vis model; using the UV Cary Scan software version v.20.0.470. Stock Solution: A standard stock solution of CS was prepared by dissolving 10 mg in a 100 mL (0.1 mg/mL) volumetric flask and completing to volume with PBS. Dilute solutions were obtained by appropriate dilution of this stock solution. […] PBS was used as the solvent. The absorbance of CS was measured at maximum absorption wavelength (λmax) of 237 nm against a solvent blank (PBS). […] Dissolution profiles were recorded for CS, Cromolyn-Zn, Cromolyn-Mg, and Cromolyn-Ca. […] The absorbance of CS was measured at 237 nm against the solvent blank. […] Absorbance measurements were performed on an Agilent Technologies Cary Series UV-Vis Spectrophotometer, Cary 100 UV-Vis; using the UV Cary Scan software version v.20.0.470. […] The absorbance was measured at the maximum wavelength (λmax=237 nm) for CS as the degradation of the pMCs progressed in PBS over time. […]"}, "[3]": {"conditions": "at 20° C.; cited from earlier work"}, "[4]": {"conditions": "noted by others; above it CS forms supramolecular aggregates; cited from earlier work"}, "[5]": {"conditions": "orally administered, absorption from the gastrointestinal tract; cited from earlier work"}},
  "data": [
    {"molecule": "O=C(O)c1cc(=O)c2c(OCC(O)COc3cccc4oc(C(=O)O)cc(=O)c34)cccc2o1", "note": "[CS, cromolyn sodium]", "values": [
      {"measurement": "dissolution / degradation in FaSSGF", "setting": "[1]", "result": "no detectable dissolution"},
      {"measurement": "maximum concentration of CS dissolved", "setting": "[2]", "result": "~98", "unit": "%"},
      {"measurement": "solubility", "setting": "[3]", "result": "~100.0", "unit": "mg/mL"},
      {"measurement": "critical self-association concentration", "setting": "[4]", "result": 10.00, "unit": "mg/mL"},
      {"measurement": "bioavailability", "setting": "[5]", "result": "< 1", "unit": "%"}
    ]}
  ]
}
